ChEMBL document CHEMBL3621070, “Design and synthesis of 2-phenylnaphthalenoids and 2-phenylbenzofuranoids as DNA topoisomerase inhibitors and antitumor agents” (Eur J Med Chem, 2015)
Activity calls are given as the source filed them. The calls are words filed in the database; no cut-off is given here.

Legend:
HepG2 = test: Antiproliferative activity against human HepG2 cells after 72 hrs by SRB assay; format: functional, cell-based; details: HepG2, 72 h
[1] = biological target: DNA topoisomerase 2-alpha (Homo sapiens) (UniProt P11388); details: 100 uM
Chain of DNA topoisomerase 2-alpha (Homo sapiens) (P11388 whole entry): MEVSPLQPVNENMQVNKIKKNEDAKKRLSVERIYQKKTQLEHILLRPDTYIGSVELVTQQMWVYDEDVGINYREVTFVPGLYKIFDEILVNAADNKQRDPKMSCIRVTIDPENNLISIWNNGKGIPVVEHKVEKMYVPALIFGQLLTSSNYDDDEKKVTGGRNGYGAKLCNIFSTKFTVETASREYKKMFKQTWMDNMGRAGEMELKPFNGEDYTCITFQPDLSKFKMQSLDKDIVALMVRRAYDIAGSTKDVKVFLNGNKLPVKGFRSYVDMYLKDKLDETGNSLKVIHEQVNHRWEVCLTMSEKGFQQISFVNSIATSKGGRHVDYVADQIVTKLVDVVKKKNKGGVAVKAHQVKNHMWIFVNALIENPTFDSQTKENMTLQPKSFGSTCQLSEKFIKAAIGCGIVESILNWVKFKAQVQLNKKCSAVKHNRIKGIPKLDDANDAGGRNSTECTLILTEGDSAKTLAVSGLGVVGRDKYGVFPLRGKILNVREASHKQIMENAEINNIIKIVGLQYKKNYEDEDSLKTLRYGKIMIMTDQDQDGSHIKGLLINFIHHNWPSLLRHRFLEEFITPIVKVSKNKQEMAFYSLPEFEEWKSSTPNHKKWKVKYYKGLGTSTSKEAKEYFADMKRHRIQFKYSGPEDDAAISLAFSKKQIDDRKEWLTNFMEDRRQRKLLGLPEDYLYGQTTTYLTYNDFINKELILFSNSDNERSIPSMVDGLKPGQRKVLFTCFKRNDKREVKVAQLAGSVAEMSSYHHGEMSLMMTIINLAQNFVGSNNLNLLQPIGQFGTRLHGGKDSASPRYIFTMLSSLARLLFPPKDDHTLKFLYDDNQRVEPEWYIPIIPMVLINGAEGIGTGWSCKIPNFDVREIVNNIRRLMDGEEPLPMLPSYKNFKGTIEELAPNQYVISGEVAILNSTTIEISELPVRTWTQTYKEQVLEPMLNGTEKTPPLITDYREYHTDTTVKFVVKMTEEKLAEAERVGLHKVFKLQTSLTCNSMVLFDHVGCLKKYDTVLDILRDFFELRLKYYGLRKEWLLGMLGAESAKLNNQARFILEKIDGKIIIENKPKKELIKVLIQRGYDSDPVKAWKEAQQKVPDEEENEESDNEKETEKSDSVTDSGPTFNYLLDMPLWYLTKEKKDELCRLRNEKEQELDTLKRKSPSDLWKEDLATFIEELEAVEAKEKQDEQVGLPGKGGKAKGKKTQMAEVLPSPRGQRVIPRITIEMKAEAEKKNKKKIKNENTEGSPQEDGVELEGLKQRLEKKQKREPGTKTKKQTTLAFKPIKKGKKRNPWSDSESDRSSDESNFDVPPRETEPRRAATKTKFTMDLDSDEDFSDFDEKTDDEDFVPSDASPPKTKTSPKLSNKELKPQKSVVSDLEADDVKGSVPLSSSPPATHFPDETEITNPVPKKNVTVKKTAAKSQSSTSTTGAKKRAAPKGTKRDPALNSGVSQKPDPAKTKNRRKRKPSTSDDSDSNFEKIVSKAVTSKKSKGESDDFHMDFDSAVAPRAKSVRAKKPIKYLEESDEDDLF
Description: Inhibition of human recombinant topoisomerase 2 alpha assessed as topoisomerase poison activity by measuring generation of linear DNA using circular supercoiled DNA at 100 uM by agarose gel electrophoresis

MDA-MB-231 [2] = test: Antiproliferative activity against human MDA-MB-231 cells assessed as growth inhibition at 10 uM after 72 hrs by SRB assay; format: functional; details: MDA-MB-231, 72 h, read-out: GI
MDA-MB-435 [3] = test: Antiproliferative activity against human MDA-MB-435 cells after 72 hrs by SRB assay; format: functional, cell-based; details: MDA-MB-435, 72 h
MDA-MB-435 [4] = test: Antiproliferative activity against human MDA-MB-435 cells assessed as growth inhibition at 10 uM after 72 hrs by SRB assay; format: functional; details: MDA-MB-435, 72 h, read-out: GI
PC-3 = test: Antiproliferative activity against human PC3 cells after 72 hrs by SRB assay; format: functional, cell-based; details: PC-3, 72 h
MDA-MB-231 [5] = test: Inhibition of topoisomerase in human MDA-MB-231 cells assessed as ATM phosphorylation at Ser1981 residue at 10 uM after 24 hrs by western blot analysis; format: cell-based
[6] = biological target: DNA topoisomerase 2-alpha (Homo sapiens) (UniProt P11388); test: Inhibition of human recombinant topoisomerase 2alpha assessed as relaxation of pBR322 DNA at 100 uM after 30 mins by agarose gel electrophoresis
MDA-MB-231 [7] = test: Antiproliferative activity against human MDA-MB-231 cells after 72 hrs by SRB assay; format: functional, cell-based; details: MDA-MB-231, 72 h
Nucleic Acid [8] = test: Induction of DNA intercalation in Escherichia coli pBR322 plasmid DNA assessed as supercoiled DNA formation at 100 uM after 1 hr by agarose gel electrophoresis; format: nucleic-acid assay
Bos taurus = species on record: Bos taurus; test: Inhibition of calf thymus topoisomerase 1 assessed as relaxation of pBR322 DNA at 100 uM after 30 mins by agarose gel electrophoresis
Nucleic Acid [9] = test: Induction of DNA intercalation in Escherichia coli pBR322 plasmid DNA assessed as supercoiled DNA formation at 10 ug/ml after 1 hr by agarose gel electrophoresis; format: nucleic-acid assay

## COc1cc([C@@H]2c3cc4c(cc3[C@@H](O[C@@H]3O[C@@H]5CO[C@@H](C)O[C@H]5[C@H](O)[C@H]3O)[C@H]3COC(=O)[C@H]23)OCO4)cc(OC)c1O [ETOPOSIDE]
HepG2
  IC50: 30 µM
[1]
  inhibition: Active
MDA-MB-231 [2]
  inhibition of growth at 10 µM: 71%
MDA-MB-435 [3]
  IC50: 1700 nM
MDA-MB-435 [4]
  inhibition of growth at 10 µM: 96.1%
PC-3
  IC50: 1 µM
MDA-MB-231 [5]
  inhibition: Active
[6]
  inhibition: Active
MDA-MB-231 [7]
  IC50: 3.6 µM

## Oc1ccc(-c2cc3cc(O)ccc3o2)cc1
MDA-MB-231 [2]
  inhibition of growth at 10 µM: 29.5%
MDA-MB-435 [4]
  inhibition of growth at 10 µM: 13.8%

## COc1cccc2c1C(=O)c1c(O)c3c(c(O)c1C2=O)C[C@@](O)(C(=O)CO)C[C@@H]3O[C@H]1C[C@H](N)[C@H](O)[C@H](C)O1
Nucleic Acid [8]
  Activity: Active

## CC[C@@]1(O)C(=O)OCc2c1cc1n(c2=O)Cc2cc3cc(O)ccc3nc2-1
Bos taurus
  inhibition: Active

## O=[N+]([O-])c1cccc(-c2cc3cc([N+](=O)[O-])ccc3o2)c1
MDA-MB-231 [2]
  inhibition of growth at 10 µM: 17.3%
MDA-MB-435 [4]
  inhibition of growth at 10 µM: 4.3%

## OCc1ccc(-c2cc3cc(O)ccc3o2)cc1
MDA-MB-231 [2]
  inhibition of growth at 10 µM: 10.6%
MDA-MB-435 [4]
  inhibition of growth at 10 µM: 42.6%

## Oc1ccc2oc(-c3ccc4c(c3)OCO4)cc2c1
MDA-MB-231 [2]
  inhibition of growth at 10 µM: 3.6%
MDA-MB-435 [4]
  inhibition of growth at 10 µM: 11.2%

## Oc1ccc2cc(-c3ccc4c(c3)OCO4)ccc2c1
HepG2
  IC50: 2.6 µM
MDA-MB-231 [2]
  inhibition of growth at 10 µM: 66.3%
MDA-MB-435 [3]
  IC50: 3900 nM
MDA-MB-435 [4]
  inhibition of growth at 10 µM: 86.9%
PC-3
  IC50: 10.8 µM
MDA-MB-231 [7]
  IC50: 8.5 µM

## CC[N+](C)(CC)CCC[n+]1c(-c2ccccc2)c2cc(N)ccc2c2ccc(N)cc21
Nucleic Acid [9]
  Activity: Active
